Measurements reported in paper PMC5218480 (PLoS ONE, 2017).

Tested on: MV-4-11 cells
Assay: Gene expression microarray analysis (Affymetrix PrimeView) and GSEA
Format: cell-based, human
Parameters: RFU PODN (11730768_x_at) / Fold change /veh PODN (11730768_x_at) / RFU LINC00158 (11744669_a_at) / Fold change /veh LINC00158 (11744669_a_at) / RFU DUSP10 (11751237_a_at) / Fold change /veh DUSP10 (11751237_a_at) / RFU ID3 (11757404_x_at) / Fold change /veh ID3 (11757404_x_at) / RFU PLEKHG5 (11737974_s_at) / Fold change /veh PLEKHG5 (11737974_s_at) / RFU LRRC4B (11730491_at) / Fold change /veh LRRC4B (11730491_at) / RFU GIMAP4 (11747438_a_at) / Fold change /veh GIMAP4 (11747438_a_at) / RFU KRT8 (11758183_x_at) / Fold change /veh KRT8 (11758183_x_at) / RFU CNN1 (11734310_a_at) / Fold change /veh CNN1 (11734310_a_at) / RFU VPS37D (11726825_at) / Fold change /veh VPS37D (11726825_at) / RFU C10orf10 (11716522_x_at) / Fold change /veh C10orf10 (11716522_x_at) / RFU KIR2DL2 /// KIR2DL4 /// KIR2DL5A /// KIR2DL5B /// KIR2DS1 /// KIR2DS2 /// KIR2DS3 /// KIR2DS4 /// KIR3DL3 /// KIR3DL3 /// KIR3DS1 (11738374_at) / Fold change /veh KIR2DL2 /// KIR2DL4 /// KIR2DL5A /// KIR2DL5B /// KIR2DS1 /// KIR2DS2 /// KIR2DS3 /// KIR2DS4 /// KIR3DL3 /// KIR3DL3 /// KIR3DS1 (11738374_at) / RFU C1QL1 (11718748_at) / Fold change /veh C1QL1 (11718748_at) / RFU TMPRSS4 (11747572_a_at) / Fold change /veh TMPRSS4 (11747572_a_at) / RFU HAMP (11756126_x_at) / Fold change /veh HAMP (11756126_x_at) / RFU RNFT2 (11725882_a_at) / Fold change /veh RNFT2 (11725882_a_at) / RFU NR4A2 (11747474_a_at) / Fold change /veh NR4A2 (11747474_a_at) / RFU ABCC12 (11746883_a_at) / Fold change /veh ABCC12 (11746883_a_at) / RFU TMEM136 (11760407_x_at) / Fold change /veh TMEM136 (11760407_x_at) / RFU CLDN22 /// WWC2 (11732394_at) / Fold change /veh CLDN22 /// WWC2 (11732394_at) / RFU HLA-DPB1 (11760878_x_at) / Fold change /veh HLA-DPB1 (11760878_x_at) / RFU SPINT1 (11716480_a_at) / Fold change /veh SPINT1 (11716480_a_at) / RFU GAP43 (11754022_s_at) / Fold change /veh GAP43 (11754022_s_at) / RFU A4GNT (11735810_at) / Fold change /veh A4GNT (11735810_at) / RFU PRB3 (11715151_x_at) / Fold change /veh PRB3 (11715151_x_at) / RFU TUBB4B (11761932_at) / Fold change /veh TUBB4B (11761932_at) / RFU CAPN14 (11732068_a_at) / Fold change /veh CAPN14 (11732068_a_at) / RFU TMCC2 (11721928_a_at) / Fold change /veh TMCC2 (11721928_a_at) / RFU IRGQ (11745062_a_at) / Fold change /veh IRGQ (11745062_a_at) / RFU FAM174B (11720279_a_at) / Fold change /veh FAM174B (11720279_a_at) / RFU TMPRSS4 (11748680_a_at) / Fold change /veh TMPRSS4 (11748680_a_at) / RFU FAM212B (11763350_a_at) / Fold change /veh FAM212B (11763350_a_at) / RFU PLEKHG5 (11743358_a_at) / Fold change /veh PLEKHG5 (11743358_a_at) / RFU ZSCAN30 (11745921_a_at) / Fold change /veh ZSCAN30 (11745921_a_at) / RFU CMKLR1 (11741424_a_at) / Fold change /veh CMKLR1 (11741424_a_at) / RFU LOC101060620 /// MAPK8IP1 (11723275_at) / Fold change /veh LOC101060620 /// MAPK8IP1 (11723275_at) / RFU SPTSSB (11747773_x_at) / Fold change /veh SPTSSB (11747773_x_at) / RFU PRSS12 (11739890_at) / Fold change /veh PRSS12 (11739890_at) / RFU BIN1 (11741810_x_at) / Fold change /veh BIN1 (11741810_x_at) / RFU WNT11 (11732464_a_at) / Fold change /veh WNT11 (11732464_a_at) / RFU C10orf10 (11716521_a_at) / Fold change /veh C10orf10 (11716521_a_at) / RFU C5orf56 (11738089_at) / Fold change /veh C5orf56 (11738089_at) / RFU CYB561 (11721691_x_at) / Fold change /veh CYB561 (11721691_x_at) / RFU ANKRD19P (11752326_a_at) / Fold change /veh ANKRD19P (11752326_a_at) / RFU OR2T12 /// OR2T33 /// OR2T8 (11738714_s_at) / Fold change /veh OR2T12 /// OR2T33 /// OR2T8 (11738714_s_at) / RFU VCAN (11748164_a_at) / Fold change /veh VCAN (11748164_a_at) / RFU JSRP1 (11732532_at) / Fold change /veh JSRP1 (11732532_at) / RFU KRTAP10-11 (11738290_x_at) / Fold change /veh KRTAP10-11 (11738290_x_at) / RFU MYO3A (11730013_a_at) / Fold change /veh MYO3A (11730013_a_at) / RFU EBF3 (11725865_a_at) / Fold change /veh EBF3 (11725865_a_at) / RFU CAMK2N1 (11719241_x_at) / Fold change /veh CAMK2N1 (11719241_x_at) / RFU C5orf56 (11738088_a_at) / Fold change /veh C5orf56 (11738088_a_at) / RFU OLFML3 (11715873_a_at) / Fold change /veh OLFML3 (11715873_a_at) / RFU LOC100653217 /// NTM (11731650_a_at) / Fold change /veh LOC100653217 /// NTM (11731650_a_at) / RFU MAPK11 (11762145_a_at) / Fold change /veh MAPK11 (11762145_a_at) / RFU FIZ1 (11724087_x_at) / Fold change /veh FIZ1 (11724087_x_at) / RFU OASL (11726364_x_at) / Fold change /veh OASL (11726364_x_at) / RFU SOX15 (11748057_x_at) / Fold change /veh SOX15 (11748057_x_at) / RFU CD79A (11719716_a_at) / Fold change /veh CD79A (11719716_a_at) / RFU HIST1H1D (11736915_at) / Fold change /veh HIST1H1D (11736915_at) / RFU CASKIN2 (11723855_a_at) / Fold change /veh CASKIN2 (11723855_a_at) / RFU LOC730098 (11760151_x_at) / Fold change /veh LOC730098 (11760151_x_at) / RFU OR4N2 (11742367_at) / Fold change /veh OR4N2 (11742367_at) / RFU PRRT2 (11749266_a_at) / Fold change /veh PRRT2 (11749266_a_at) / RFU SNX32 (11753110_a_at) / Fold change /veh SNX32 (11753110_a_at) / RFU CDHR5 (11726645_a_at) / Fold change /veh CDHR5 (11726645_a_at) / RFU RCAN1 (11760418_a_at) / Fold change /veh RCAN1 (11760418_a_at) / RFU FAM167A (11723789_a_at) / Fold change /veh FAM167A (11723789_a_at) / RFU FAM26E (11764081_at) / Fold change /veh FAM26E (11764081_at) / RFU ISYNA1 (11749810_s_at) / Fold change /veh ISYNA1 (11749810_s_at) / RFU ACY1 (11761880_at) / Fold change /veh ACY1 (11761880_at) / RFU 11764098_at / Fold change /veh 11764098_at / RFU SAMD14 (11745864_x_at) / Fold change /veh SAMD14 (11745864_x_at) / RFU NPB (11741838_a_at) / Fold change /veh NPB (11741838_a_at) / RFU TMPRSS6 (11731388_a_at) / Fold change /veh TMPRSS6 (11731388_a_at) / RFU KRTAP10-2 (11738614_at) / Fold change /veh KRTAP10-2 (11738614_at) / RFU ARHGAP8 /// PRR5-ARHGAP8 (11727945_x_at) / Fold change /veh ARHGAP8 /// PRR5-ARHGAP8 (11727945_x_at) / RFU KRTAP5-7 /// NADSYN1 (11734609_at) / Fold change /veh KRTAP5-7 /// NADSYN1 (11734609_at) / RFU RASL12 (11751679_a_at) / Fold change /veh RASL12 (11751679_a_at) / RFU CDKN2B (11736163_a_at) / Fold change /veh CDKN2B (11736163_a_at) / RFU PRF1 (11729649_at) / Fold change /veh PRF1 (11729649_at) / RFU, ZNF638 /// ZNF638-IT1 / Fold change vs veh, ZNF638 /// ZNF638-IT1 / RFU, PANK3 / Fold change vs veh, PANK3 / RFU, SH3YL1 / Fold change vs veh, SH3YL1 / RFU, ZEB2 / Fold change vs veh, ZEB2 / RFU, NRIP1 / Fold change vs veh, NRIP1 / RFU, PTTG1IP / Fold change vs veh, PTTG1IP / RFU, CAPN2 / Fold change vs veh, CAPN2 / RFU, MED14 / Fold change vs veh, MED14 / RFU, SNORA58 / Fold change vs veh, SNORA58 / RFU, C1orf63 / Fold change vs veh, C1orf63 / RFU, LRRFIP1 / Fold change vs veh, LRRFIP1 / RFU, NDUFAF7 / Fold change vs veh, NDUFAF7 / RFU, SLC12A2 / Fold change vs veh, SLC12A2 / RFU, IBTK / Fold change vs veh, IBTK / RFU, ESF1 / Fold change vs veh, ESF1 / Fold change vs veh, TMEM50B / RFU, TAOK1 / Fold change vs veh, TAOK1 / RFU, ACBD3 / Fold change vs veh, ACBD3 / RFU, TMA16 / Fold change vs veh, TMA16 / RFU, RWDD3 / Fold change vs veh, RWDD3 / RFU, BCAT1 / Fold change vs veh, BCAT1 / RFU, EDEM3 / Fold change vs veh, EDEM3 / RFU, TMEM33 / Fold change vs veh, TMEM33 / RFU, WDR75 / Fold change vs veh, WDR75 / RFU, AHCTF1 / Fold change vs veh, AHCTF1 / RFU, TFRC / Fold change vs veh, TFRC / RFU, ZDHHC17 / Fold change vs veh, ZDHHC17 / RFU, NOM1 / Fold change vs veh, NOM1 / RFU, ARL8B / Fold change vs veh, ARL8B / RFU, ZBTB11 / Fold change vs veh, ZBTB11 / RFU, TAMM41 / Fold change vs veh, TAMM41 / RFU, KIAA1704 /// LOC100996395 / Fold change vs veh, KIAA1704 /// LOC100996395 / RFU, ING1 / Fold change vs veh, ING1 / RFU, TRMT61B / Fold change vs veh, TRMT61B / RFU, FUBP3 / Fold change vs veh, FUBP3 / RFU, TP53 / Fold change vs veh, TP53 / RFU, TNKS2 / Fold change vs veh, TNKS2 / RFU, ZFP14 / Fold change vs veh, ZFP14 / RFU, ACTR2 / Fold change vs veh, ACTR2 / RFU, PPP3R1 / Fold change vs veh, PPP3R1 / RFU, PIK3R1 / Fold change vs veh, PIK3R1 / RFU, HNRNPA1 / Fold change vs veh, HNRNPA1 / RFU, RNF170 / Fold change vs veh, RNF170 / RFU, ZNF28 / Fold change vs veh, ZNF28 / RFU, RNGTT / Fold change vs veh, RNGTT / RFU, OGT / Fold change vs veh, OGT / RFU, BRD1 / Fold change vs veh, BRD1 / RFU, MARS / Fold change vs veh, MARS / RFU, ZNF655 / Fold change vs veh, ZNF655 / RFU, FAHD1 / Fold change vs veh, FAHD1 / RFU, BDP1 / Fold change vs veh, BDP1 / RFU, LRRCC1 / Fold change vs veh, LRRCC1 / RFU, ARID1A / Fold change vs veh, ARID1A / RFU, ZNF146 / Fold change vs veh, ZNF146 / RFU, ZNF330 / Fold change vs veh, ZNF330 / RFU, GPN3 / Fold change vs veh, GPN3 / RFU, C9orf123 / Fold change vs veh, C9orf123 / RFU, N4BP2L2 / Fold change vs veh, N4BP2L2 / RFU, ARFIP1 / Fold change vs veh, ARFIP1 / RFU, FAM179B / Fold change vs veh, FAM179B / RFU, BCL10 / Fold change vs veh, BCL10 / RFU, UHRF1BP1L / Fold change vs veh, UHRF1BP1L / RFU, BET1 / Fold change vs veh, BET1 / RFU, CNOT2 / Fold change vs veh, CNOT2 / RFU, ZNF268 / Fold change vs veh, ZNF268 / Fold change vs veh, ZNF507 / RFU, DGCR2 / Fold change vs veh, DGCR2 / RFU, WDSUB1 / Fold change vs veh, WDSUB1 / Fold change vs veh, HSP90B1 /// MIR3652 / RFU, ADSS / Fold change vs veh, ADSS / RFU, GK / Fold change vs veh, GK / RFU, ZNF148 / Fold change vs veh, ZNF148 / RFU, TAF9 / Fold change vs veh, TAF9 / RFU, SLC1A5 / Fold change vs veh, SLC1A5 / RFU, SLMO2 / Fold change vs veh, SLMO2 / RFU, ABCC4 / Fold change vs veh, ABCC4 / RFU, LOC101060439 /// RAP1B / Fold change vs veh, LOC101060439 /// RAP1B / RFU, RFX7 / Fold change vs veh, RFX7 / RFU, GTPBP10 / Fold change vs veh, GTPBP10 / RFU, CNEP1R1 / Fold change vs veh, CNEP1R1 / RFU, BIVM-ERCC5 /// ERCC5 / Fold change vs veh, BIVM-ERCC5 /// ERCC5 / RFU, ILF3 / Fold change vs veh, ILF3 / RFU 11762660_at / Fold change /veh 11762660_at / RFU VCAN (11757783_s_at) / Fold change /veh VCAN (11757783_s_at) / RFU DDX43 (11728927_at) / Fold change /veh DDX43 (11728927_at) / RFU KRT8 (11758188_x_at) / Fold change /veh KRT8 (11758188_x_at) / RFU NKD1 (11759106_at) / Fold change /veh NKD1 (11759106_at) / RFU SRD5A1 (11742802_a_at) / Fold change /veh SRD5A1 (11742802_a_at) / RFU TPSAB1 /// TPSB2 (11721975_s_at) / Fold change /veh TPSAB1 /// TPSB2 (11721975_s_at) / RFU GSTM3 (11746129_a_at) / Fold change /veh GSTM3 (11746129_a_at) / RFU IL23R (11737362_x_at) / Fold change /veh IL23R (11737362_x_at) / RFU TMEM51 (11727254_a_at) / Fold change /veh TMEM51 (11727254_a_at) / RFU PIWIL2 (11732686_x_at) / Fold change /veh PIWIL2 (11732686_x_at) / RFU ORM1 (11744905_x_at) / Fold change /veh ORM1 (11744905_x_at) / RFU CCDC152 (11743942_at) / Fold change /veh CCDC152 (11743942_at) / RFU ECM1 (11717891_a_at) / Fold change /veh ECM1 (11717891_a_at) / RFU IL23R (11748794_a_at) / Fold change /veh IL23R (11748794_a_at) / RFU TNFAIP8L3 (11732012_x_at) / Fold change /veh TNFAIP8L3 (11732012_x_at) / RFU MBOAT4 (11741988_at) / Fold change /veh MBOAT4 (11741988_at) / RFU 11764193_at / Fold change /veh 11764193_at / RFU TMEM53 (11763286_at) / Fold change /veh TMEM53 (11763286_at) / RFU MAGEB2 (11727129_at) / Fold change /veh MAGEB2 (11727129_at) / RFU TMEM200A (11744735_a_at) / Fold change /veh TMEM200A (11744735_a_at) / RFU CCDC152 (11751479_a_at) / Fold change /veh CCDC152 (11751479_a_at) / RFU FAM211A (11726209_a_at) / Fold change /veh FAM211A (11726209_a_at) / RFU RGS16 (11746705_a_at) / Fold change /veh RGS16 (11746705_a_at) / RFU VCAN (11755009_s_at) / Fold change /veh VCAN (11755009_s_at) / RFU RHOB (11743442_s_at) / Fold change /veh RHOB (11743442_s_at) / RFU RGS16 (11720943_a_at) / Fold change /veh RGS16 (11720943_a_at) / RFU RGS16 (11720944_at) / Fold change /veh RGS16 (11720944_at) / RFU, VPS4B / Fold change vs veh, VPS4B / RFU, CREB1 / Fold change vs veh, CREB1 / RFU, DNAJC13 / Fold change vs veh, DNAJC13 / RFU, GNAQ / Fold change vs veh, GNAQ / RFU, CDK5R1 / Fold change vs veh, CDK5R1 / RFU, ZRANB3 / Fold change vs veh, ZRANB3 / RFU, CUL4A / Fold change vs veh, CUL4A / RFU, CCNY / Fold change vs veh, CCNY / RFU, UFL1 / Fold change vs veh, UFL1 / RFU, COG3 / Fold change vs veh, COG3 / RFU, DIAPH2 / Fold change vs veh, DIAPH2 / RFU, SKA2 / Fold change vs veh, SKA2 / RFU, AFF3 / Fold change vs veh, AFF3 / RFU, LMF1 / Fold change vs veh, LMF1 / RFU, IPO11 / Fold change vs veh, IPO11 / RFU, DFFB / Fold change vs veh, DFFB / RFU, FOXP1 / Fold change vs veh, FOXP1 / RFU, CARD8 / Fold change vs veh, CARD8 / RFU, STRN3 / Fold change vs veh, STRN3 / RFU, ADK / Fold change vs veh, ADK / RFU, RASSF2 / Fold change vs veh, RASSF2 / RFU, WIPF1 / Fold change vs veh, WIPF1 / RFU, LARP1B / Fold change vs veh, LARP1B / RFU, RASA1 / Fold change vs veh, RASA1 / RFU, RB1 / Fold change vs veh, RB1 / RFU, PPFIA1 / Fold change vs veh, PPFIA1 / RFU, MAT2A / Fold change vs veh, MAT2A / RFU, CCT5 / Fold change vs veh, CCT5 / RFU, WDR92 / Fold change vs veh, WDR92 / RFU, CUX1 / Fold change vs veh, CUX1 / RFU, TTC7A / Fold change vs veh, TTC7A / RFU, TMEM135 / Fold change vs veh, TMEM135 / RFU, DEPTOR / Fold change vs veh, DEPTOR / RFU, CPM / Fold change vs veh, CPM / RFU, DNAJB6 / Fold change vs veh, DNAJB6 / RFU, CACNA2D3 / Fold change vs veh, CACNA2D3 / RFU, DTX4 / Fold change vs veh, DTX4 / RFU, TFCP2 / Fold change vs veh, TFCP2 / RFU, GMCL1 /// GMCL1P1 / Fold change vs veh, GMCL1 /// GMCL1P1 / RFU, AEBP2 / Fold change vs veh, AEBP2 / RFU, SNHG1 /// SNORD22 /// SNORD25 /// SNORD26 /// SNORD27 /// SNORD28 /// SNORD29 /// SNORD31 / Fold change vs veh, SNHG1 /// SNORD22 /// SNORD25 /// SNORD26 /// SNORD27 /// SNORD28 /// SNORD29 /// SNORD31 / Fold change (Aza/veh), C12orf56 (ProbeSet 11735607_a_at) / Fold change (ACY-1035/veh), C12orf56 (ProbeSet 11735607_a_at) / Fold change (Aza/veh), FGFR1OP (ProbeSet 11751329_s_at) / Fold change (ACY-1035/veh), FGFR1OP (ProbeSet 11751329_s_at) / Fold change (Aza/veh), VPS36 (ProbeSet 11739960_a_at) / Fold change (ACY-1035/veh), VPS36 (ProbeSet 11739960_a_at) / RFU SYPL1 (11715823_x_at) / Fold change /veh SYPL1 (11715823_x_at) / RFU IGFBP7 (11715501_s_at) / Fold change /veh IGFBP7 (11715501_s_at) / RFU REEP3 (11722064_at) / Fold change /veh REEP3 (11722064_at) / RFU IGLL1 (11728026_x_at) / Fold change /veh IGLL1 (11728026_x_at): dose or concentration left out as unconfirmed
Conditions: ProbeSet 11746640_a_at; LIST D

## Nc1ccc(-c2cccs2)cc1NC(=O)c1ccc2c(c1)cc(C1CC1)n2CCN1CCOCC1 [ACY-1035]
  Fold change vs veh, RASSF2: 0.86
